From US9551711B2, “Compositions and methods for detecting nitration of PKG-1α and methods of use thereof” (Augusta University Research Institute, Inc., priority 2013, dated 2017)

System: pulmonary artery smooth muscle cells (PASMC)
Assay: PASMC phenotype markers MYH, Calponin-1, Vimentin (Western blot)
Assay type: cell-based, lamb
Conditions: WT-PKG-1α transfected PASMC; SIN-1 500 μM, 48 h
Experimental: To assess the effect of nitration on pulmonary arterial smooth muscle cell (PASMC) phenotype, PASMC were transiently transfected with expression plasmids containing WT-PKG-1α, Y247F-PKG-1α, or PDEST40 (as a control) for 20 h. Cells were then exposed or not to SIN-1 (500 μM, 48 h) and the effect on synthetic and contractile markers determined. The levels of myosin heavy chain (MYH, FIG. 3A), Calponin-1 (FIG. 3B), and Vimentin (FIG. 3C) were determined. The blots were then stripped and re-probed for β-actin to normalize for protein loading. PASMC were also subjected to immunohistochemistry using antibodies to SM22-α (5 μg/ml) and PCNA (1 μg/ml). Relevant secondary antibodies linked to Alexa Fluor 488 (green) were then applied. DAPI was also used to stain (blue) the cell nuclei.

## 3-morpholinosydnonimine N-ethylcarbamide [SIN-1]
  expression of contractile marker Calponin-1: decreased
  expression of contractile marker MYH: decreased
  expression of proliferative marker Vimentin: increased
